# Patent US20260327233A1, “Heteroaryl Compounds as Ligand Directed Degraders of IRAK4” (Celgene Corporation, priority 2023, published 2026)
# Structures can show the parent of a compound that is named as a salt.
# Assays:
# IRAK4 [1] = target: T1, IRAK4 (Homo sapiens, UniProt Q9NWZ3); assay: IRAK4 PhosphoSens Biochemical Assay (BIOCHEM); settings: IRAK4 1 nM; ATP and Sox conjugated peptide substrate AQT0326; pH 7.5; room temperature; 240 minutes
# T1 sequence (Q9NWZ3 1-460): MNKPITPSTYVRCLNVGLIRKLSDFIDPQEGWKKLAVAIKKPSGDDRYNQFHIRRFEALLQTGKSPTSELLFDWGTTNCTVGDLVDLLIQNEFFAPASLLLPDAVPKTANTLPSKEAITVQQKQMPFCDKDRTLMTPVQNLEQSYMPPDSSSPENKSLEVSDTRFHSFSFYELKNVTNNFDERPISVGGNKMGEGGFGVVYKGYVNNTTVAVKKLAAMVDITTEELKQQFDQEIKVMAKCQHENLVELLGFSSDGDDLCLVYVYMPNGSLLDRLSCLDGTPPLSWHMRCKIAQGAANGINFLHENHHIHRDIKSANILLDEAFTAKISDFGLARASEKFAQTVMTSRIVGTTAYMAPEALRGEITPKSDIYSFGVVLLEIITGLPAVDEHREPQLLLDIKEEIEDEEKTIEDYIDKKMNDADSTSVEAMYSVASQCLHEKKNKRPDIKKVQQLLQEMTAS
# Description: The PhosphoSens® biochemical assay was performed as described by the vendor (AssayQuant Technologies Inc. Marlborough, MA). A 1.25× stock solution of IRAK4 (PV4002, ThermoFisher Scientific, Waltham, MA) and a 5× stock solution of ATP and Sox conjugated peptide substrate, AQT0326 (CSKS-AQT0326B, AssayQuant Technologies), were prepared in 1× kinase reaction buffer consisting of 50 mM HEPES, pH 7.5, 0.01% Brij-35, 0.5 mM EGTA, 20 mM MgCl2 and 1 mM DTT. 10 μL of the ATP and substrate solution mix, for a final concentration of 200 µM ATP and […] peptide substrate, was added to a Corning 3574 384-well, white, non-binding surface microtiter plate containing 0.5 μL of serially diluted test compounds prepared in DMSO. The reactions were started with the addition of 40 μL of the enzyme solution, for a final IRAK4 concentration of 1 nM, and monitored every 71 seconds for 240 minutes at λEX 360/λEM 485 in a BioTek Synergy H4 plate reader (Agilent Technologies, Santa Clara, CA) at room temperature. The initial linear portions of the progress curves were fit according to a linear equation to yield the slopes and converted to % inhibition based on a value of 100% activity for the no inhibitor treated control. IC50 values of each compound were obtained by fitting the % inhibition-compound concentration curves using Dotmatics software (Dotmatics, Bishops Stortford, Hertfordshire, England),
# IRAK4 [2] = target: T1, IRAK4; assay: ALE THP1 HTRF (IRAK4 HTRF in THP1 cell lysate, Cisbio HTRF kit); type: cell-based; set-up: THP1 Homogeneous Time Resolved Fluorescence (ALE THP1 HTRF) Procedure; endogenous in cells; host or cells: THP1; settings: anti-IRAK4 d2 / anti-IRAK4 k antibodies
# Description: Cell culture media was prepared in a tissue culture hood in a sterile environment by adding 10% FBS and 1% Penicillin Streptomycin to 500 mL no phenol red RPMI 1640 media. The media was filtered through a Nalgene Bottle Top Filter and stored at 4° C.
# For Homogenous Time Resolved Fluorescence (HTRF) assays, a Cisbio HTRF kit was used, which included: Lysis Buffer #1 4×, Blocking Reagent #3 100×, 20× Antibody 1 (Anti-IRAK4 d2), 20× Antibody 2 (Anti-IRAK4 k), and Detection Buffer.
# 4× Lysis Buffer was stored at 4° C. For use as 1× Lysis buffer, the 4× solution was diluted with de-ionized water (distilled water, Gibco Cat. #15230279) and 100× Blocking Reagent in a 1:3:0.04 volume ratio.
# 20× Antibody Solution aliquots were stored at −80° C. and the Detection Buffer was stored at 4° C. For use as a 1× Antibody Solution, the 20× Antibody Solution aliquot was diluted with Detection Buffer in a 1:19 volume ratio.
# Cells were lysed at room temperature for 45 min with shaking. A BCA protein assay was performed and normalization was conducted to the desired total protein concentration with 1× lysis buffer. Next, 1× Antibody Solutions were prepared by adding 380 μL Detection Buffer to 20 μL 20× Antibody Solution aliquots and mixing well. 1× Antibody Solutions were combined 1:1 and briefly vortexed. For control wells, 20 μL 1× anti IRAK4-k Antibody Solution was saved. The 384-well plate (ProxiPlate-384 Plus, Perkin Elmer Cat. #6008289) was loaded by adding 4 μL of the mixed Antibody Solution to empty wells using a single channel repeater. Using a multi-channel repeater, 16 μL lysate was added per well, and any bubbles that were formed were popped with 20 μL pipette tips and Kimwipe edges. In column 10, triplicates of each control were prepared. In wells A10, B10, and C10, buffer control was prepared by adding 16 μL Lysis Buffer and 4 μL Detection Buffer. In wells D10, E10, and F10, cryptate control was prepared by adding 16 μL Lysis Buffer, 2 μL Detection Buffer, and 2 μL 1× anti-IRAK4-k Antibody Solution. In wells G10, H10, and 110, a negative control was prepared by adding 16 μL Lysis Buffer and 4 μL mixed Antibody Solution. The plate was sealed with a clear seal and covered with an aluminum lid. The plate was spun down at 800 g for 5 min and incubated in the dark at room temperature overnight. The next day, the plate was spun down at 800 g for 5 min. The samples were analyzed by a plate reader (Envision, PerkinElmer) using the Desnor 384 HTRF program.
IC50 (IRAK4 [1]) [nM],EC50 (IRAK4 [2]) [nM],ALE THP1 HTRF YMIN (IRAK4 [2]) [%],Structure (SMILES)
8.6,67,30,"N#Cc1nn([C@H]2CC[C@H](C(=O)N3CCN(c4ccc5c(c4)C(=O)N(C4CCC(=O)NC4=O)C5=O)CC3)CC2)cc1NC(=O)c1cnn2ccc(N3CCNCC3)nc12 (stereo partly drawn) [Compound P-1, N-(3-cyano-1-((1r,4r)-4-(4-(2-(2,6-dioxopiperidin-3-yl)-1,3-dioxoisoindolin-5-yl)piperazine-1-carbonyl)cyclohexyl)-1H-pyrazol-4-yl)-5-(piperazin-1-yl)pyrazolo[1,5-a]pyrimidine-3-carboxamide hydrochloride]"
15.3,> 10000,63,N#Cc1nn(C2CCC(C(=O)N3CCN(c4ccc5c(c4)C(=O)N(C4CCC(=O)NC4=O)C5)CC3)CC2)cc1NC(=O)c1cnn2ccc(N3CCNCC3)nc12 (stereo not drawn) [Compound P-2]
4.3,> 10000,54,N#Cc1nn(C2CCC(C(=O)NC3CCN(c4ccc5c(c4)C(=O)N(C4CCC(=O)NC4=O)C5=O)CC3)CC2)cc1NC(=O)c1cnn2ccc(N3CCNCC3)nc12 (stereo not drawn) [Compound P-3]
3.2,> 10000,94,N#Cc1nn([C@H]2CC[C@H](C(=O)N3CCN(c4ccc5c(c4)CN(C4CCC(=O)NC4=O)C5=O)CC3)CC2)cc1NC(=O)c1cnn2ccc(N3CCNCC3)nc12 (stereo partly drawn) [Compound P-4]
0.5,> 10000,60,N#Cc1nn([C@H]2CC[C@H](C(=O)N3CCN(c4ccc5c(c4)C(=O)N(C4CCC(=O)NC4=O)C5=O)CC3)CC2)cc1NC(=O)c1cnn2ccc(N3CCC[C@@H](N)C3)nc12 (stereo partly drawn) [Compound P-5]
8.1,2820,26,"N#Cc1nn([C@H]2CC[C@H](CN3CCN(c4ccc5c(c4)C(=O)N(C4CCC(=O)NC4=O)C5=O)CC3)CC2)cc1NC(=O)c1cnn2ccc(N3CCNCC3)nc12 (stereo partly drawn) [Compound P-6, N-[3-Cyano-1-[4-[[4-[2-(2,6-dioxo-3-piperidyl)-1,3-dioxo-isoindolin-5-yl]piperazin-1-yl]methyl]cyclohexyl]pyrazol-4-yl]-5-piperazin-1-yl-pyrazolo[1,5-a]pyrimidine-3-carboxamide dihydrochloride]"
< 0.5,> 10000,74,N#Cc1nn(C2CCC(C(=O)N3CCN(c4ccc5c(c4)C(=O)N(C4CCC(=O)NC4=O)C5=O)CC3)CC2)cc1NC(=O)c1cnn2ccc(N[C@@H]3CCCC[C@@H]3N)nc12 (stereo partly drawn) [Compound P-7]
< 0.5,8.9,33,N#Cc1nn(C2CCC(C(=O)N3CCN(c4ccc5c(c4)C(=O)N(C4CCC(=O)NC4=O)C5=O)CC3)CC2)cc1NC(=O)c1cnn2ccc(N3C[C@H](N)C[C@@H](F)C3)nc12 (stereo partly drawn) [Compound P-8]
1.4,> 10000,78,N#Cc1nn([C@H]2CC[C@H](CN3CCC(c4ccc5c(c4)C(=O)N(C4CCC(=O)NC4=O)C5)CC3)CC2)cc1NC(=O)c1cnn2ccc(N3CCNCC3)nc12 (stereo partly drawn) [Compound P-9]
1.2,> 10000,73,N#Cc1nn(C2CCC(C(=O)N3CCC(c4ccc5c(c4)C(=O)N(C4CCC(=O)NC4=O)C5)CC3)CC2)cc1NC(=O)c1cnn2ccc(N3CCNCC3)nc12 (stereo not drawn) [Compound P-10]
0.5,> 10000,74,N#Cc1nn([C@H]2CC[C@H](C(=O)N3CCN(c4ccc5c(c4)C(=O)N(C4CCC(=O)NC4=O)C5=O)CC3)CC2)cc1NC(=O)c1cnn2ccc(N3CCC[C@@H](O)C3)nc12 (stereo partly drawn) [Compound P-11]
0.5,4280,66,N#Cc1nn(C2CCC(C(=O)N3CCC(c4ccc5c(c4)C(=O)N(C4CCC(=O)NC4=O)C5=O)CC3)CC2)cc1NC(=O)c1cnn2ccc(N3CCNCC3)nc12 (stereo not drawn) [Compound P-12]
< 0.5,8,24,"N[C@@H]1C[C@@H](F)CN(c2ccn3ncc(C(=O)Nc4cn([C@H]5CC[C@H](C(=O)N6CCN(c7ccc8c(c7)C(=O)N(C7CCC(=O)NC7=O)C8=O)CC6)CC5)nc4C(F)(F)F)c3n2)C1 (stereo partly drawn) [Compound P-13, 5-[(3R,5R)-3-Amino-5-fluoro-1-piperidyl]-N-[1-[4-[4-[2-(2,6-dioxo-3-piperidyl)-1,3-dioxo-isoindolin-5-yl]piperazine-1-carbonyl]cyclohexyl]-3-(trifluoromethyl)pyrazol-4-yl]pyrazolo[1,5-a]pyrimidine-3-carboxamide]"
1.6,10000,73,O=C1CCC(N2C(=O)c3ccc(N4CCN(C(=O)[C@H]5CC[C@H](n6cc(NC(=O)c7cnn8ccc(N9CCNCC9)nc78)c(C(F)(F)F)n6)CC5)CC4)cc3C2=O)C(=O)N1 (stereo partly drawn) [Compound P-14]
< 0.5,8,18,N[C@@H]1C[C@@H](F)CN(c2ccn3ncc(C(=O)Nc4cn([C@H]5CC[C@H](C(=O)N6CCN(c7ccc8c(c7)C(=O)N(C7CCC(=O)NC7=O)C8=O)CC6)CC5)nc4C(F)F)c3n2)C1 (stereo partly drawn) [Compound P-15]
0.5,13,41,O=C1CCC(N2C(=O)c3ccc(N4CCN(C(=O)C5CCC(n6cc(NC(=O)c7cnn8ccc(N9CCNCC9)nc78)c(C(F)F)n6)CC5)CC4)cc3C2=O)C(=O)N1 (stereo not drawn) [Compound P-16]
1.2,> 10000,>95,N#Cc1nn([C@H]2CC[C@H](CN3CCC(c4ccc5c(c4)C(=O)N(C4CCC(=O)NC4=O)C5=O)CC3)CC2)cc1NC(=O)c1cnn2ccc(N3CCNCC3)nc12 (stereo partly drawn) [Compound P-17]
< 0.5,> 10000,69,N#Cc1nn(C2CCC(C(=O)N3CCN(c4ccc5c(c4)C(=O)N(C4CCC(=O)NC4=O)C5)CC3)CC2)cc1NC(=O)c1cnn2ccc(N3C[C@H](N)C[C@@H](F)C3)nc12 (stereo partly drawn) [Compound P-18]
< 0.5,7,14,N[C@@H]1C[C@@H](F)CN(c2ccn3ncc(C(=O)Nc4cn([C@H]5CC[C@H](C(=O)NC6CCN(c7ccc8c(c7)C(=O)N(C7CCC(=O)NC7=O)C8=O)CC6)CC5)nc4C(F)F)c3n2)C1 (stereo partly drawn) [Compound P-19]
< 0.5,11,22,N[C@@H]1C[C@@H](F)CN(c2ccn3ncc(C(=O)Nc4cn([C@H]5CC[C@H](C(=O)NC6CCN(c7ccc8c(c7)C(=O)N(C7CCC(=O)NC7=O)C8=O)CC6)CC5)nc4C(F)(F)F)c3n2)C1 (stereo partly drawn) [Compound P-20]
